Assay results: patent US5434182A (priority 1993, dated 1995)
Values joined by “and” are separate entries in the source; they are usually repeats but may differ in a detail not shown here. Identical values can stand only once. “Also recorded” adds a separate entry of the source. Like-named read-outs stand apart in the source and are kept apart here.

Assays:
VSV [1] = test: microbe, parasite or virus in culture; assay type: cell-based, vesicular stomatitis virus strain Indiana; details: for minimal effective concentration: read-out: Lowest concentration causing ≥3.0 log10 reduction in virus titer
Group B streptococcus = test: Inactivation of bacteria by monoglycerides, Group B streptococcus; assay type: cell-based; details: 2 mg/ml, read-out: Reduction of bacterial concentration, Group B streptococcus
HSV-1 [2] = test: microbe, parasite or virus in culture; assay type: cell-based, herpes simplex virus type 1 strain MacIntyre; details: Human alphaherpesvirus 1, 0.5 h; 0.25 mg/ml, 37° C., 30 min; read-out: Reduction of virus titer, HSV-1
HSV-1 [3] = assay type: cell-based, herpes simplex virus type 1 strain MacIntyre
VSV [4] = test: microbe, parasite or virus in culture; assay type: cell-based, vesicular stomatitis virus
VSV [5] = test: microbe, parasite or virus in culture; assay type: cell-based, vesicular stomatitis virus; details: for log reduction at 15000 µM: Vesicular stomatitis virus
sperm = test: Spermicidal test: motility and viability of sperm in semen; assay type: cell-based; details: for viability at 100000 µM / viability at 150000 µM: Homo sapiens, Sperm
Method: The fatty acids and derivatives thereof disclosed here are useful as spermicides and in the treatment of sexually transmitted diseases. […] Four samples tested were comprised as follows:
Five test tubes were prepared, one for each of Samples A to D and a Control. An amount of 0.5 ml of active semen was added to each test tube. Each of Samples A and B and the Control was at 37° C., and Samples C and D were at room temperature. The percentages of motility and viability were measured from 15 seconds to 5 minutes in the case of each of Samples A to D and from 15 seconds to 2 hours for the Control.

Total White Blood Cells = test: Stability of white blood cells in whole human blood to added lipid; assay type: cell-based; parameters: unit not given here; details: 15 mM, control 6.4
Description: Further testing has shown the effect of monoglyceride esters and ether on the total white blood cell concentration in whole human blood.

enveloped viruses = assay type: cell-based
VSV [6] = test: microbe, parasite or virus in culture; assay type: cell-based, vesicular stomatitis virus strain Indiana; details: Vesicular stomatitis virus, 0.5 h; for minimal effective concentration: read-out: lowest concentration which reduced the VSV titer by ≥4.0 log10 units
HSV-1 [7] = test: microbe, parasite or virus in culture; assay type: cell-based, herpes simplex virus type 1 strain MacIntyre; details: Human alphaherpesvirus 1, 0.5 h, 37° C., 30 min, read-out: Reduction of virus titer, HSV-1
Visna virus = test: microbe, parasite or virus in culture; assay type: cell-based, Visna virus strain K796; details: Visna-maedi virus, 0.5 h, 37° C., 30 min, read-out: Reduction of virus titer, VV (visna virus)
poliovirus = assay type: cell-based, Poliovirus type 1 strain Chat; details: 8 mg/ml, 37° C., 30 min; control 10^4.7 TCID50
VSV [8] = test: microbe, parasite or virus in culture; assay type: cell-based, vesicular stomatitis virus strain Indiana; details: for effect on viral particles (electron micrographs): 37° C., 30 min
Vero cells = test: Disintegration of cell membranes, Vero cells (scanning electron microscopy); details: 1 mg/ml, 37° C., 30 min
sheep fibroblasts = test: Disintegration of cell membranes, sheep fibroblasts (scanning electron microscopy); details: 1 mg/ml, 37° C., 30 min
[9] = Vesicular stomatitis virus, 0.5 h
[10] = Vesicular stomatitis virus, 0.5 h, read-out: Reduction of virus titer, VSV
[11] = read-out: Reduction of virus titer, VSV

Structure (SMILES): CCCCC/C=C\C/C=C\CCCCCCCC(=O)OC[C@@H](O)CO [Monolinolein (18:2), Monolinolein]
- minimal effective concentration (VSV [1]; [9]): 250 µg/mL and 700 µM
- log reduction at 250 µg/mL (VSV [1]; [10]): ≥ 4
- concentration relative to monocaprin for same reduction in viral titer (VSV [1]; maintenance medium, millimolar): one-third the concentration
- log reduction at 2000 µg/mL (Group B streptococcus): 4.5

Structure (SMILES): CCCCCCCCCCCC(=O)OCC(O)CO (racemic) [Monolaurin (12:0), 1-Monolauroyl-rac-glycerol]
- minimal effective concentration (VSV [1]; [9]): 250 µg/mL and 900 µM
- log reduction at 250 µg/mL (VSV [1]; [10]): ≥ 4
- active concentration relative to corresponding free acids (VSV [1]; monoglyceride vs free acid): ten times lower
- log reduction at 250 µg/mL (HSV-1 [2]): ≥ 3.7
- Reduction of HSV-L titer (HSV-1 [3]; incubation 0.5 min): ≥ 4.0
- Reduction of HSV-L titer (HSV-1 [3]; incubation 1 min): ≥ 4.0
- Reduction of HSV-L titer (HSV-1 [3]; incubation 5 min): ≥ 4.0
- Reduction of HSV-L titer (HSV-1 [3]; incubation 10 min): ≥ 4.0
- Reduction of HSV-L titer (HSV-1 [3]; incubation 30 min): ≥ 4.0
- log reduction at 2000 µg/mL (Group B streptococcus): 4.5
- dependence of viral killing on sodium taurocholate (VSV [4]; VSV, human serum): only takes place when sodium taurocholate is present
- log reduction at 3000 µM (VSV [4]; Vesicular stomatitis virus, read-out: Reduction in VSV Titer, 3 mM, 10 mM sodium taurocholate, human serum): ≥ 5
- log reduction at 3000 µM (VSV [4]; Vesicular stomatitis virus, read-out: Reduction in VSV Titer, 3 mM, no sodium taurocholate, human serum): 0
- log reduction at 4000 µM (VSV [4]; Vesicular stomatitis virus, read-out: Reduction in VSV Titer, 4 mM, 10 mM sodium taurocholate, human serum): ≥ 5
- log reduction at 4000 µM (VSV [4]; Vesicular stomatitis virus, read-out: Reduction in VSV Titer, 4 mM, no sodium taurocholate, human serum): 0
- log reduction at 5000 µM (VSV [4]; Vesicular stomatitis virus, read-out: Reduction in VSV Titer, 5 mM, 10 mM sodium taurocholate, human serum): ≥ 5
- log reduction at 5000 µM (VSV [4]; Vesicular stomatitis virus, read-out: Reduction in VSV Titer, 5 mM, no sodium taurocholate, human serum): 0
- log reduction at 7500 µM (VSV [4]; Vesicular stomatitis virus, read-out: Reduction in VSV Titer, 7.5 mM, 10 mM sodium taurocholate, human serum (Table 18)): ≥ 5
- log reduction at 15000 µM (VSV [4]; Vesicular stomatitis virus, read-out: Reduction in VSV Titer, 15 mM, 10 mM sodium taurocholate, human serum): ≥ 5
- concentration as low as which kills VSV (VSV [4]; in the presence of 10 mM sodium taurocholate): 3 mM

Structure (SMILES): CCCCCCCCOC[C@@H](O)CO [1-O-Octyl-sn-glycerol, 1-O-octyl-sn-glycerol]
- Reduction in VSV titer (VSV [5]; 5 mM, with 10 mM sodium taurocholate, human plasma, 37° 30 min): ≥ 4.0 Log10
- log reduction at 15000 µM (VSV [5]; 2.5 min, read-out: Reduction in VSV Titer, 15 mM, 2.5 min, 37°, human plasma): 0
- log reduction at 15000 µM (VSV [5]; 5 min, read-out: Reduction in VSV Titer, 15 mM, 5 min, 37°, human plasma): ≥ 4
- log reduction at 15000 µM (VSV [5]; 10 min, read-out: Reduction in VSV Titer, 15 mM, 10 min, 37°, human plasma): ≥ 4
- log reduction at 15000 µM (VSV [5]; 0.25 h, read-out: Reduction in VSV Titer, 15 mM, 15 min, 37°, human plasma): ≥ 4
- log reduction at 15000 µM (VSV [5]; 0.5 h, read-out: Reduction in VSV Titer, 15 mM, 30 min, 37°, human plasma): ≥ 4
- log reduction at 15000 µM (VSV [5]; 0.5 h, read-out: Reduction in VSV Titer, 15 mM, no sodium taurocholate, human plasma, 37° 30 min): ≥ 4
- antiviral activity of MG ethers relative to esters, in words (VSV [5]; human plasma, listed as 8 carbon MG ether): just as effective as the naturally occurring esters; also recorded: somewhat more antiviral than the 8 carbon ester
- % mot. (sperm; 100 mM in semen, 15 sec., Sample B 37° C., Sample D room temperature): 0%
- % mot. (sperm; 100 mM in semen, 30 sec., Sample B 37° C., Sample D room temperature): 0%
- % mot. (sperm; 100 mM in semen, 1 min., Sample B 37° C., Sample D room temperature): 0%
- % mot. (sperm; 100 mM in semen, 2 min., Sample B 37° C., Sample D room temperature): 0%
- % mot. (sperm; 100 mM in semen, 3 min., Sample B 37° C., Sample D room temperature): 0%
- % mot. (sperm; 100 mM in semen, 5 min., Sample B 37° C., Sample D room temperature): 0%
- % mot. (sperm; 150 mM in semen, 15 sec., Sample A 37° C., Sample C room temperature): 0%
- % mot. (sperm; 150 mM in semen, 30 sec., Sample A 37° C., Sample C room temperature): 0%
- % mot. (sperm; 150 mM in semen, 1 min., Sample A 37° C., Sample C room temperature): 0%
- % mot. (sperm; 150 mM in semen, 2 min., Sample A 37° C., Sample C room temperature): 0%
- % mot. (sperm; 150 mM in semen, 3 min., Sample A 37° C., Sample C room temperature): 0%
- % mot. (sperm; 150 mM in semen, 5 min., Sample A 37° C., Sample C room temperature): 0%
- time within which 0% viability was effected (sperm; A, C 150 mM, B 100 mM in semen): ≤ 3 min
- time within which sperm cells were rendered immobile (sperm; A, C 150 mM, B 100 mM in semen): ≤ 15 s
- coating of sperm (sperm; A, C 150 mM, B, D 100 mM in semen, 30 minutes): coated the sperm effectively
- viability at 100000 µM (sperm; 0.05 h, 100 mM in semen, 3 min., Sample B 37° C.): 0%
- viability at 150000 µM (sperm; 0.05 h, 150 mM in semen, 3 min., Sample A 37° C., Sample C room temperature): 0%
- viability at 100000 µM (sperm; 5 min, 100 mM in semen, Sample B 37° C., Sample D room temperature): 0%
- viability at 150000 µM (sperm; 5 min, 150 mM in semen, Sample A 37° C., Sample C room temperature): 0%
- Total White Blood Cells (Total White Blood Cells): 0.6

Structure (SMILES): CCCCCCCCCCCCCC(=O)OCC(O)CO (stereo not drawn) [Monomyristin (14:0), Monomyristin]
- minimal effective concentration (VSV [1]; [9]): 2000 µg/mL and 13000 µM
- log reduction at 2000 µg/mL (VSV [1]; [10]): 3
- antiviral activity in words (enveloped viruses): consistently less active

Structure (SMILES): CCCCCCCCCCCC(=O)O [Lauric (12:0), Lauric]
- log reduction at 2000 µg/mL (VSV [6]; [11]): ≥ 4
- minimal effective concentration (VSV [6]): 2000 µg/mL and 10000 µM
- log reduction at 2000 µg/mL (HSV-1 [7]; 2 mg/ml): ≥ 4
- log reduction at 2000 µg/mL (Visna virus; 2 mg/ml): ≥ 3.2
- reduction of poliovirus titer (poliovirus): did not cause a significant reduction of virus titer
- antiviral activity in words (enveloped viruses): showed activity

Structure (SMILES): CCCCCCCCCCCCCC(=O)O [Myristic (14:0), Myristic]
- log reduction at 4000 µg/mL (VSV [6]; [11]): ≥ 4
- minimal effective concentration (VSV [6]): 4000 µg/mL and 16000 µM
- log reduction at 4000 µg/mL (HSV-1 [7]; 4 mg/ml): ≥ 4
- log reduction at 4000 µg/mL (Visna virus; 4 mg/ml): 1.7
- reduction of poliovirus titer (poliovirus): did not cause a significant reduction of virus titer
- antiviral activity in words (enveloped viruses): showed activity

Structure (SMILES): CCCCC/C=C\C/C=C\CCCCCCCC(=O)O [Linoleic (18:2), linoleic acid]
- log reduction at 1000 µg/mL (VSV [6]; [11]): ≥ 4
- minimal effective concentration (VSV [6]): 1000 µg/mL and 3500 µM
- log reduction at 1000 µg/mL (HSV-1 [7]; 1 mg/ml): ≥ 4
- log reduction at 1000 µg/mL (Visna virus; 1 mg/ml): ≥ 3.2
- reduction of poliovirus titer (poliovirus): did not cause a significant reduction of virus titer
- effect on viral particles (electron micrographs) (VSV [8]; 0.5 mg/ml): leakage of viral envelopes was produced
- effect on viral particles (electron micrographs) (VSV [8]; 1 mg/ml): particle disintegration
- log reduction at 500 µg/mL (VSV [8]; Vesicular stomatitis virus, 0.5 h, read-out: reduction in virus titer, 0.5 mg/ml, samples used for electron microscopy): 1
- log reduction at 1000 µg/mL (VSV [8]; Vesicular stomatitis virus, 0.5 h, read-out: reduction in virus titer, 1 mg/ml, samples used for electron microscopy): ≥ 3
- effect on cell membranes (Vero cells): the cell membranes were partly or completely disintegrated
- effect on cell membranes (sheep fibroblasts): the cell membranes were partly or completely disintegrated
